The values below come from US20230233477A1, “Bi2O3 NANOPARTICLES PREPARED BY THE TOP-DOWN ULTRASONICATION ROUTE AS A BROAD-[sequence] ANTIMICROBIAL TO OVERCOME DRUG RESISTANCE IN ANTIBIOTICS” (KENT STATE UNIVERSITY, priority 2022, published 2023).

The subject of assay [1] is DRPA (BAA-2108). As to the kind of experiment: Checkerboard assay with meropenem against DRPA. Type of assay: cell-based. Particulars: Pseudomonas aeruginosa, BAA2108, single agent. As to the method: The degree of synergism was determined using a checkerboard assay in a 96-well plate (FIG. 4b). […] Combinations of the two treatments were prepared using the 2-fold dilution method to determine the fractional inhibitory concentration (FIC; Table S2). The FIC index is used to determine whether two treatments are synergistic (χ≤0.5), additive (0.5<χ<4) or antagonistic (χ≥4).^38 Checkerboard assay.

Assay [2] deals with PA. It counts as cell-based, Pseudomonas aeruginosa. The settings on record: sub-lethal concentration, after 13 days. How it is done:
Drug resistance study. The MIC was determined using a broth dilution method. […] The as-prepared bacterial solutions were incubated at 37° C. for 24 h. After incubation, the MIC was determined as the lowest concentration that inhibited visible growth of the tested microorganisms with unaided eyes. This same procedure was done by serial passaging of the bacteria until 30 days. Later on, three types of mutant DSPA were prepared by treating with Ag NPs, ciprofloxacin and meropenem for 15 days.

The structures appear in SMILES notation.

For `C[C@@H](O)[C@H]1C(=O)N2C(C(=O)O)=C(S[C@@H]3CN[C@H](C(=O)N(C)C)C3)[C@H](C)[C@H]12` [meropenem], the MIC (commonly the lowest concentration that inhibits growth of the organism) in assay [1] worked out at 2 µg/mL. As for `O=C(O)c1cn(C2CC2)c2cc(N3CCNCC3)c(F)cc2c1=O` [ciprofloxacin], the “MIC increase (fold)” value in assay [2] is 32 fold.
